Results from publication PMC5325082 (Molecular Pharmacology, 2017).

Experiments:
Format in all cases: cell-based
[1] = target: chicken α9α10 nAChR (wild type) (Gallus gallus, UniProt Q9I8C7+Q9PTS8); experiment: ACh-evoked currents, two-electrode voltage clamp in Xenopus laevis oocytes, wild-type receptor
Excerpt: (§1) cDNAs encoding Gallus gallus (chick) or Rattus norvegicus (rat) α9 and α10 nAChR subunits were subcloned into a modified pGEMHE vector for expression studies in Xenopus laevis oocytes. Capped cRNAs were in vitro transcribed from linearized plasmid DNA templates using RiboMAX Large Scale RNA Production System (Promega, Madison, WI). Mutant subunits were produced using Quick Change XL II kit (Stratagene, La Jolla, CA). Amino acid sequences of rat and chicken α9, α10, and Torpedo α1 subunits were aligned using ClustalW (EMBL-EBI, Wellcome Genome Campus, Hinxton, Cambridgeshire). Residues were numbered according to the corresponding Torpedo α1 subunit mature protein ([Karlin, 2002]).
(§2) The maintenance of Xenopus laevis and the preparation and cRNA injection of stage V and VI oocytes have been described in detail elsewhere ([Verbitsky et al., 2000]). Typically, oocytes were injected with 50 nl of RNase-free water containing 0.01–1.0 ng of cRNA (at a 1:1 molar ratio when pairwise combined) and maintained in Barth’s solution at 18°C. […] Data were analyzed using Clampfit from the pClamp 6.1 software (Molecular Devices, Sunnyvale, CA). […]
(§3) Concentration-response curves were normalized to the maximal agonist response in each oocyte. […] Data were analyzed using Clampfit from the pClamp 6.1 software.

[2] = target: rat α9Y190Tα10 receptor (Rattus norvegicus, UniProt P43144+Q9JLB5, Y217T); experiment: ACh-evoked currents, two-electrode voltage clamp in Xenopus laevis oocytes
Sequence of rat α9Y190Tα10 receptor (P43144 26-479 Y217T): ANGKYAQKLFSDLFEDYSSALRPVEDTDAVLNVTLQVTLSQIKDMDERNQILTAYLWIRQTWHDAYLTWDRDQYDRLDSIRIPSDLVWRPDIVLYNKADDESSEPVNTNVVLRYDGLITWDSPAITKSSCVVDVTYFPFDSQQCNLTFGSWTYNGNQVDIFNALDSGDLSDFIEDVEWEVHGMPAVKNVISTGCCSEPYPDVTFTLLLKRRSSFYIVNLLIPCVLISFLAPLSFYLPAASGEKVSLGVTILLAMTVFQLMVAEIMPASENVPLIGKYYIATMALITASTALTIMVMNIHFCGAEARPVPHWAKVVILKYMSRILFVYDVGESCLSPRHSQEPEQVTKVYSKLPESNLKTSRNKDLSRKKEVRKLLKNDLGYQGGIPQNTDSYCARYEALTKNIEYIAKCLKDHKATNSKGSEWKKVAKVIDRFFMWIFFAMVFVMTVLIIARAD
Sequence of rat α9Y190Tα10 receptor (Q9JLB5 25-447): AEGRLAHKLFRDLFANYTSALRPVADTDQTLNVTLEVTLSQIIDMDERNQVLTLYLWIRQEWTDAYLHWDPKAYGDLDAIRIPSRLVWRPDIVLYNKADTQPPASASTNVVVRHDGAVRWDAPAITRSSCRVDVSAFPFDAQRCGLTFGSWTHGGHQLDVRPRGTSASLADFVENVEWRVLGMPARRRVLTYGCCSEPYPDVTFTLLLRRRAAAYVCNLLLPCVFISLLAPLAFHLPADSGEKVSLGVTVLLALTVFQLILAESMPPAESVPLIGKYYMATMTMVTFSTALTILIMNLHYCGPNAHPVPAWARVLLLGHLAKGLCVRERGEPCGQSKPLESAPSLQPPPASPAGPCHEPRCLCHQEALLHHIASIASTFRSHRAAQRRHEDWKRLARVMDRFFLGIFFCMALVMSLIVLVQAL
Excerpt: as §1
(§4) The maintenance of Xenopus laevis and the preparation and cRNA injection of stage V and VI oocytes have been described in detail elsewhere ([Verbitsky et al., 2000]). Typically, oocytes were injected with 50 nl of RNase-free water containing 0.01–1.0 ng of cRNA (at a 1:1 molar ratio when pairwise combined) and maintained in Barth’s solution at 18°C. Electrophysiological recordings were performed 2–6 days after cRNA injection under two-electrode voltage clamp with an Oocyte Clamp OC-725B or C amplifier (Warner Instruments Corp., Hamden, CT). Recordings were filtered at a corner frequency of 10 Hz using a 900BT Tunable Active Filter (Frequency Devices Inc., Ottawa, IL). Data acquisition was performed using a Patch Panel PP-50 LAB/1 interface (Warner Instruments Corp.) at a rate of 10 points per second. Both voltage and current electrodes were filled with 3 M KCl and had resistances of ∼1 MΩ. Data were analyzed using Clampfit from the pClamp 6.1 software (Molecular Devices, Sunnyvale, CA). During electrophysiological recordings, oocytes were continuously superfused (∼15 ml/min) with normal frog saline composed of: 115 mM NaCl, 2.5 mM KCl, 1.8 mM CaCl2, and 10 mM HEPES buffer, pH 7.2. […] Unless otherwise indicated, the membrane potential was clamped to −70 mV. To minimize activation of the endogenous Ca^2+ sensitive chloride current ([Elgoyhen et al., 2001]), all experiments were performed in oocytes incubated with the Ca^2+ chelator 1,2-bis(2-aminophenoxy)ethane-N,N,N′,N′-tetraacetic acid (acetoxymethyl ester) (100 µM) for 3 hours before electrophysiological recordings.
(§5) Concentration-response curves were normalized to the maximal agonist response in each oocyte. The mean and S.E.M. values of the responses are represented. Agonist concentration-response curves were iteratively fitted, using Prism 5 software (GraphPad Software Inc., La Jolla, CA), with the equation: I/Imax = A^nH/(A^nH + EC50^nH), where I is the peak inward current evoked by the agonist at concentration A; Imax is the current evoked by the concentration of the agonist eliciting a maximal response; EC50 is the concentration of the agonist inducing a half-maximal current response; and nH is the Hill coefficient. Data were analyzed using Clampfit from the pClamp 6.1 software.

[3] = target: rat α9W55Tα10 receptor (Rattus norvegicus, UniProt P43144+Q9JLB5, W82T); experiment: as above
Sequence of rat α9W55Tα10 receptor (P43144 26-479 W82T): as the sequence (P43144 26-479 Y217T) above, with W57T, T192Y counted along it
Sequence of rat α9W55Tα10 receptor (Q9JLB5 25-447): as the sequence (Q9JLB5 25-447) above
Excerpt: as §1, §4, §5

[4] = target: rat α9α10Y190T receptor (Rattus norvegicus, UniProt P43144+Q9JLB5, Y216T); experiment: as above
Sequence of rat α9α10Y190T receptor (P43144 26-479): as the sequence (P43144 26-479 Y217T) above, with T192Y counted along it
Sequence of rat α9α10Y190T receptor (Q9JLB5 25-447 Y216T): as the sequence (Q9JLB5 25-447) above, with Y192T counted along it
Excerpt: as §1, §4, §5

[5] = target: rat α9α10CC/SS receptor (Rattus norvegicus, UniProt P43144+Q9JLB5, C218S/C219S); experiment: as above
Sequence of rat α9α10CC/SS receptor (P43144 26-479, stated change not applied): as the sequence (P43144 26-479 Y217T) above, with T192Y counted along it
Sequence of rat α9α10CC/SS receptor (Q9JLB5 25-447 C218S/C219S): as the sequence (Q9JLB5 25-447) above, with C194S, C195S counted along it
Excerpt: as §1, §4, §5

[6] = target: rat α9CC/SSα10 receptor (Rattus norvegicus, UniProt P43144+Q9JLB5, C219S/C220S); experiment: as above
Sequence of rat α9CC/SSα10 receptor (P43144 26-479 C219S/C220S): as the sequence (P43144 26-479 Y217T) above, with T192Y, C194S, C195S counted along it
Sequence of rat α9CC/SSα10 receptor (Q9JLB5 25-447, stated change not applied): as the sequence (Q9JLB5 25-447) above
Excerpt: as §1, §4, §5

[7] = target: rat α9CC/SSα10CC/SS receptor (Rattus norvegicus, UniProt P43144+Q9JLB5, C218S/C219S/C220S); experiment: as above
Sequence of rat α9CC/SSα10CC/SS receptor (P43144 26-479 C219S/C220S): as the sequence (P43144 26-479 Y217T) above, with T192Y, C194S, C195S counted along it
Sequence of rat α9CC/SSα10CC/SS receptor (Q9JLB5 25-447 C218S/C219S): as the sequence (Q9JLB5 25-447) above, with C194S, C195S counted along it
Excerpt: as §1, §4, §5

[8] = target: rat α9α10 nAChR (wild type) (Rattus norvegicus, UniProt P43144+Q9JLB5); experiment: ACh-evoked currents, two-electrode voltage clamp in Xenopus laevis oocytes, wild-type receptor; details: −70 mV
Sequence of rat α9α10 nAChR (wild type) (P43144 26-479): as the sequence (P43144 26-479 Y217T) above, with T192Y counted along it
Sequence of rat α9α10 nAChR (wild type) (Q9JLB5 25-447): as the sequence (Q9JLB5 25-447) above
Excerpt: as §1, §2, §3

[9] = target: rat α9α10 W55T/R117M receptor (Rattus norvegicus, UniProt P43144+Q9JLB5, R143M/W81T); experiment: ACh-evoked currents, two-electrode voltage clamp in Xenopus laevis oocytes
Sequence of rat α9α10 W55T/R117M receptor (P43144 26-479): as the sequence (P43144 26-479 Y217T) above, with T192Y counted along it
Sequence of rat α9α10 W55T/R117M receptor (Q9JLB5 25-447 W81T/R143M): as the sequence (Q9JLB5 25-447) above, with W57T, R119M counted along it
Excerpt: as §1, §4
(§6) Concentration-response curves were normalized to the maximal agonist response in each oocyte. The mean and S.E.M. values of the responses are represented. […] Data were analyzed using Clampfit from the pClamp 6.1 software. […]

[10] = target: rat α9α10R117M receptor (Rattus norvegicus, UniProt P43144+Q9JLB5, R143M); experiment: as above
Sequence of rat α9α10R117M receptor (P43144 26-479): as the sequence (P43144 26-479 Y217T) above, with T192Y counted along it
Sequence of rat α9α10R117M receptor (Q9JLB5 25-447 R143M): as the sequence (Q9JLB5 25-447) above, with R119M counted along it
Excerpt: as §1, §4, §6

[11] = target: T1, rat α9α10W55T receptor (Rattus norvegicus, UniProt P43144+Q9JLB5, W81T); experiment: as above
T1 construct: expressed in transfected cells; host or cells: Xenopus laevis oocytes (cRNA injection)
T1 sequence (P43144 26-479): as the sequence (P43144 26-479 Y217T) above, with T192Y counted along it
T1 sequence (Q9JLB5 25-447 W81T): as the sequence (Q9JLB5 25-447) above, with W57T counted along it
Excerpt: as §1, §4, §6

Sequence of chicken α9α10 nAChR (wild type) (Q9I8C7 27-452): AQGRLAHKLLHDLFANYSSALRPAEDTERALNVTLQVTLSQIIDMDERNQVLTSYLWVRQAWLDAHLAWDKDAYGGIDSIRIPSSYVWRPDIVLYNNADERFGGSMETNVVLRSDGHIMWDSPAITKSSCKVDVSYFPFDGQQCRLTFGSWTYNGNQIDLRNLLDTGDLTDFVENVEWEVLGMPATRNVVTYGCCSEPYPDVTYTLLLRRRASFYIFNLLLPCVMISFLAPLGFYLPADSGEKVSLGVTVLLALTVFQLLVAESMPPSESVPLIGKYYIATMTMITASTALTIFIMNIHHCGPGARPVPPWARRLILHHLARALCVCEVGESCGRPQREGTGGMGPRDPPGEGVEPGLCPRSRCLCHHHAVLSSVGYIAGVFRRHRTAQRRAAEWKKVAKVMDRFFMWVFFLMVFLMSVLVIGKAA
Sequence of chicken α9α10 nAChR (wild type) (Q9PTS8 28-484): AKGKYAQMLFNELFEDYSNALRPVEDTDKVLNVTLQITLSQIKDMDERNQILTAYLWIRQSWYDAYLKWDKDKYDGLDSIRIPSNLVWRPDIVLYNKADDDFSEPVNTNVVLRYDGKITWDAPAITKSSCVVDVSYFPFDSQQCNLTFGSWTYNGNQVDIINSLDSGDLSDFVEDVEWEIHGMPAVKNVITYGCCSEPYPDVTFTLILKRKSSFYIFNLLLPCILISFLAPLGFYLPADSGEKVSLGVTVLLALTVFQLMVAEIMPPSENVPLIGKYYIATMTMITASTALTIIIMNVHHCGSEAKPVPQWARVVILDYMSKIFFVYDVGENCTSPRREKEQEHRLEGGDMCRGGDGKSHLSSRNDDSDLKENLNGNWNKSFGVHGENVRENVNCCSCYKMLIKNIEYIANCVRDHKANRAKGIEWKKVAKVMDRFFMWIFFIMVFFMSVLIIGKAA

CC(=O)OCC[N+](C)(C)C [ACh, acetylcholine]
EC50 [1]: 16 ± 2 µM | Imax (maximal evoked current) [1]: 100 ± 12 nA | Imax (maximal evoked current) [2]: 112 ± 6 nA | Imax (maximal evoked current) [3]: 42 ± 4 nA | Imax (maximal evoked current) [4]: 336 ± 91 nA | Imax (maximal evoked current) [5]: 571 ± 113 nA | Imax (maximal evoked current) [6]: 402 ± 103 nA | Imax (maximal evoked current) [7]: 360 ± 119 nA | Imax (maximal evoked current) [8]: 298 ± 48 nA | Imax (maximal evoked current) ([9]; rat α9α10 W55T/R117M, oocytes): 245 ± 83 nA | Free energy coupling, double-mutant cycle ([9]; α10W55 and α10R117): -1.47 kcal/mol | Imax (maximal evoked current) [10]: 107 ± 38 nA | Imax (maximal evoked current) [11]: 177 ± 81 nA
